Measurements from publication PMC4311625, “Structural determinants for binding to angiotensin converting enzyme 2 (ACE2) and angiotensin receptors 1 and 2” (Frontiers in Pharmacology, 2015).
Like-named read-outs stand apart in the source and are kept apart here. Ends that are not written are not given here. Peptide text beside a SMILES is read from it.

Legend:
ACE2 [1] = target: T1, ACE2 (Homo sapiens, UniProt Q9BYF1); assay: ACE2 quenched fluorescence substrate (QFS) inhibition assay; type: biochemical; settings: for inhibition at 0.1 µM: peptide 0.1 μM, read-out: Inhibition (%) of ACE2, AngII chimeras, 0.1 μM; for inhibition at 1 µM: peptide 1 μM, read-out: Inhibition (%) of ACE2, AngII chimeras, 1 μM
T1 sequence (Q9BYF1 18-805, species assumed): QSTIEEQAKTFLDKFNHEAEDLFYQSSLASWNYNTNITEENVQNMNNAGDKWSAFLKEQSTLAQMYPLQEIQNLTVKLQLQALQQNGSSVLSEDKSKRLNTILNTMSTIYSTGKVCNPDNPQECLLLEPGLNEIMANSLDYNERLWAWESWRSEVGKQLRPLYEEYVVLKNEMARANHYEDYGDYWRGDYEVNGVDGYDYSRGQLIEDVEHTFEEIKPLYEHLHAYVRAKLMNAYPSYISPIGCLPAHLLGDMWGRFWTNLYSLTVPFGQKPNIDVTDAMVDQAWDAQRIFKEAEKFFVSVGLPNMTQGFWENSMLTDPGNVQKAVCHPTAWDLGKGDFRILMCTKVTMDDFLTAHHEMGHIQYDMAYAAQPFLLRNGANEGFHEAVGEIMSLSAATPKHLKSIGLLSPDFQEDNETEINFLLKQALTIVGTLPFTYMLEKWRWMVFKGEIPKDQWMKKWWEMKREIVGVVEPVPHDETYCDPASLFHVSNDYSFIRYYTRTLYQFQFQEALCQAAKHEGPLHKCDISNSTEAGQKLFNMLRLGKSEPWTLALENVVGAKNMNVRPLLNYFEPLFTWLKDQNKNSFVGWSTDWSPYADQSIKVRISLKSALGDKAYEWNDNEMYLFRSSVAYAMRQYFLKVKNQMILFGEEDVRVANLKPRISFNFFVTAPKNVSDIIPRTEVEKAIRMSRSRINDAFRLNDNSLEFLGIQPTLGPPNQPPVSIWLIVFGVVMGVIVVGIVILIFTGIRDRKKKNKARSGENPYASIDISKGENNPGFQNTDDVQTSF
Protocol: Angiotensin converting enzyme 2 QFS assays were performed for 1 h in 50 uM QFS, 1 M NaCl, 100 mM Tris-Cl, pH 6.5 at 37∘C on a BMG LabTechnologies (Offenburg, Germany), FLUOStar Optima in a 96 well-plate. Subsequent data analysis determined the inhibition of native AngII, its analogs and C-terminal peptides compared to the ACE2 QFS substrate [MCA-APK(DNP)-OH, [Vickers et al., 2002]]. […] Three controls were included in each ACE2 QFS assay; AngII (100 and 10 μM), IHPF (100 μM) and a known ACE2 inhibitor (1 nM; Millennium Pharmaceuticals, Cambridge, MA, USA). QFS assay results were accepted when ACE2 inhibition by AngII (10 μM) was 80 ± 5%, IHPF was 65 ± –5% and the ([Qian et al., 1999]) ‘Millennium Inhibitor’ was 70 ± –5%. Acceptable coefficients of variation (CV; standard deviation/mean × 100) for sample triplicates were <7%.
A library of 40 tetrapeptides based on the four C-terminal residues of Ang II (Ile-His-Pro-Phe/IHPF) was generated and screened for ACE2 binding at 100 μM in order to identify key residues of the C-terminus of Ang II involved in binding to the ACE2 active site. […] Several substitutions (Val, Tyr, Ala, Gly, Phe, Trp, Pro, His, Ile, and Leu) were made in order to further probe the highly hydrophobic and cyclic specificity of the C-terminus of Ang II. A β-napthalene amino acid (Nth) derivative was used as a highly hydrophobic non-natural cyclic residue substitute, and Arg and Lys were substituted for histidine at the second position from the N-terminus of the tetrapeptide to determine if positive charge or other structural or positional requirements were important.

ACE2 [2] = target: T1, ACE2; assay: LC–MS ACE2 proteolytic cleavage assay; type: in vitro ADME; settings: LC–MS; for Cleavage (%) by ACE2, 1 μM: peptide 1 μM incubated with ACE2 at 37 °C, typically 4-5 h; for Cleavage (%) by ACE2, 10 μM: peptide 10 μM incubated with ACE2 at 37 °C, typically 4-5 h (5 h)
Protocol: The first hour of the incubation was performed in the Fluorostar Optima plate reader in order to confirm previously observed level of inhibition, then for the remaining time the samples were transferred to small microfuge tubes and incubated in a water bath. The extent of ACE2 cleavage was assessed by LC–MS on an Agilent capillary HP1100, MSD VL3000 Ion-Trap system.

[3] = QFS assay, pH 6.5, 37 °C, 1 h, value ± spread
[4] = peptide 10 μM, QFS assay, pH 6.5, 37 °C, 1 h, value ± spread, read-out: Inhibition (%) of ACE2, AngII chimeras, 10 μM
[5] = peptide 100 μM, 50 uM QFS, 1 M NaCl, 100 mM Tris-Cl pH 6.5, 37 °C, 1 h, triplicate, read-out: Inhibition (%) of ACE2, single and multiple residue substitution analogs (Table 2)
[6] = read-out: ACE2 inhibition of terminally modified IHPF analogs, 10 μM (Table 3, in brackets), peptide 10 μM, 50 uM QFS, 1 M NaCl, 100 mM Tris-Cl pH 6.5, 37 °C, 1 h
[7] = read-out: ACE2 inhibition of terminally modified IHPF analogs, 100 μM (Table 3), peptide 100 μM, 50 uM QFS, 1 M NaCl, 100 mM Tris-Cl pH 6.5, 37 °C, 1 h
[8] = pH 6.5, read-out: ACE2 inhibition of terminally modified IHPF analogs, 100 μM (Table 3)
[9] = peptide 100 μM, 50 uM QFS MCA-APK(DNP)-OH, 1 M NaCl, 100 mM Tris-Cl pH 6.5, 37 °C, 1 h, fluorescence, triplicate, read-out: ACE2 inhibition of single substitution analogs of the C-terminal of AngII (Table 1)
[10] = 1 h, pH 6.5, read-out: Inhibition (%) of ACE2, single and multiple residue substitution analogs (Table 2)

Compound	inhibition at 10 µM (ACE2 [1]; [6]) [%]	inhibition at 100 µM (ACE2 [1]; [7]) [%]	also measured
CC[C@H](C)[C@H](NC(=O)[C@H](Cc1ccc(O)cc1)NC(=O)[C@@H](NC(=O)[C@H](CCCNC(=N)N)NC(=O)[C@@H](N)CC(=O)O)C(C)C)C(=O)N[C@@H](Cc1cnc[nH]1)C(=O)N1CCC[C@H]1C(=O)N[C@@H](Cc1ccccc1)C(=O)O [Angiotensin II, reference compound]	–	–	inhibition at 0.1 µM (ACE2 [1]; [3]): -5%; inhibition at 1 µM (ACE2 [1]; [3]): 21 ± 6.8%; inhibition at 10 µM (ACE2 [1]; [4]): 77 ± 2.9%; inhibition at 100 µM (ACE2 [1]; [5]): 97%; inhibition at 100 µM (ACE2 [1]; peptide 100 μM, QFS assay, pH 6.5, 37 °C, 1 h, value ± spread, read-out: Inhibition (%) of ACE2, AngII chimeras, 100 μM): 99 ± 0.3%; inhibition at 10 µM (ACE2 [1]; read-out: ACE2 inhibition by control, acceptance window of QFS assay): 80 ± 5%; Cleavage (%) by ACE2, 1 μM (ACE2 [2]): 93%; Cleavage (%) by ACE2, 10 μM (ACE2 [2]; listed as D1R2V3Y4I5H6P7F8): 40 ± 2%; Cleavage (%) by ACE2, 10 μM (ACE2 [2]; listed as native Ang II): 40%
CC[C@H](C)[C@H](NC(C)=O)C(=O)N[C@@H](Cc1c[nH]cn1)C(=O)N1CCC[C@H]1C(=O)N[C@@H](Cc1ccccc1)C(=O)O [N-acetylated IHPF] (Ac-IHPF-OH)	41	87	–
CC[C@H](C)[C@H](NC(C)=O)C(=O)N[C@@H](Cc1ccc(O)cc1)C(=O)N1CCC[C@H]1C(=O)N[C@@H](Cc1ccccc1)C(=O)O [N-acetylated IYPF] (Ac-IYPF-OH)	62	93	–
CC(=O)N1CCC[C@H]1C(=O)N[C@@H](Cc1c[nH]cn1)C(=O)N1CCC[C@H]1C(=O)N[C@@H](Cc1ccccc1)C(=O)O [N-acetylated PHPF] (Ac-PHPF-OH)	–	57	–
CC(=O)N1CCC[C@H]1C(=O)N[C@@H](Cc1c[nH]cn1)C(=O)N[C@H](C(=O)N[C@@H](Cc1ccccc1)C(=O)O)C(C)C [N-acetylated PHVF] (Ac-PHVF-OH)	–	8	–
CC(=O)N1CCC[C@H]1C(=O)N[C@@H](Cc1ccc(O)cc1)C(=O)N1CCC[C@H]1C(=O)N[C@@H](Cc1ccccc1)C(=O)O [N-acetylated PYPF] (Ac-PYPF-OH)	44	87	–
CC(=O)N1CCC[C@H]1C(=O)N[C@@H](Cc1ccc(O)cc1)C(=O)N[C@H](C(=O)N[C@@H](Cc1ccccc1)C(=O)O)C(C)C [N-acetylated PYVF] (Ac-PYVF-OH)	18	78	–
CC(=O)N[C@H](C(=O)N[C@@H](Cc1c[nH]cn1)C(=O)N[C@H](C(=O)N[C@@H](Cc1ccccc1)C(=O)O)C(C)C)C(C)C [N-acetylated VHVF] (Ac-VHVF-OH)	31	76	–
CC(=O)N[C@H](C(=O)N[C@@H](Cc1ccc(O)cc1)C(=O)N1CCC[C@H]1C(=O)N[C@@H](Cc1ccccc1)C(=O)O)C(C)C [N-acetylated VYPF] (Ac-VYPF-OH)	79	98	–
CC[C@H](C)[C@H](NC(C)=O)C(=O)N[C@@H](Cc1c[nH]cn1)C(=O)N1CCC[C@H]1C(=O)N[C@@H](Cc1ccccc1)C(N)=O [N-acetylated/C-amidated IHPF] (Ac-IHPF-NH2)	–	26	–
CC[C@H](C)[C@H](NC(C)=O)C(=O)N[C@@H](Cc1ccc(O)cc1)C(=O)N1CCC[C@H]1C(=O)N[C@@H](Cc1ccccc1)C(N)=O [N-acetylated/C-amidated IYPF] (Ac-IYPF-NH2)	–	18	–
CC(=O)N1CCC[C@H]1C(=O)N[C@@H](Cc1c[nH]cn1)C(=O)N1CCC[C@H]1C(=O)N[C@@H](Cc1ccccc1)C(N)=O [N-acetylated/C-amidated PHPF] (Ac-PHPF-NH2)	–	8	–
CC(=O)N1CCC[C@H]1C(=O)N[C@@H](Cc1c[nH]cn1)C(=O)N[C@H](C(=O)N[C@@H](Cc1ccccc1)C(N)=O)C(C)C [N-acetylated/C-amidated PHVF] (Ac-PHVF-NH2)	–	12	–
CC(=O)N1CCC[C@H]1C(=O)N[C@@H](Cc1ccc(O)cc1)C(=O)N1CCC[C@H]1C(=O)N[C@@H](Cc1ccccc1)C(N)=O [N-acetylated/C-amidated PYPF] (Ac-PYPF-NH2)	–	–	inhibition at 100 µM (ACE2 [1]; [8]): 28%
CC(=O)N1CCC[C@H]1C(=O)N[C@@H](Cc1ccc(O)cc1)C(=O)N[C@H](C(=O)N[C@@H](Cc1ccccc1)C(N)=O)C(C)C [N-acetylated/C-amidated PYVF] (Ac-PYVF-NH2)	–	25	–
CC(=O)N[C@H](C(=O)N[C@@H](Cc1c[nH]cn1)C(=O)N[C@H](C(=O)N[C@@H](Cc1ccccc1)C(N)=O)C(C)C)C(C)C [N-acetylated/C-amidated VHVF] (Ac-VHVF-NH2)	4	21	–
CC(=O)N[C@H](C(=O)N[C@@H](Cc1ccc(O)cc1)C(=O)N1CCC[C@H]1C(=O)N[C@@H](Cc1ccccc1)C(N)=O)C(C)C [N-acetylated/C-amidated VYPF] (Ac-VYPF-NH2)	–	–	inhibition at 100 µM (ACE2 [1]; [8]): 30%
O=C(O)[C@H](Cc1ccccc1)NC(=O)[C@@H]1CCCN1C(=O)[C@H](Cc1c[nH]cn1)NC(=O)[C@@H]1CCCN1 [PHPF] (H-PHPF-OH)	20	81	inhibition at 100 µM (ACE2 [1]; [9]): 78%
CC(C)[C@H](NC(=O)[C@H](Cc1c[nH]cn1)NC(=O)[C@@H]1CCCN1)C(=O)N[C@@H](Cc1ccccc1)C(=O)O [PHVF] (H-PHVF-OH)	49	93	inhibition at 100 µM (ACE2 [1]; [5]): 93%
O=C(O)[C@H](Cc1ccccc1)NC(=O)[C@@H]1CCCN1C(=O)[C@H](Cc1ccc(O)cc1)NC(=O)[C@@H]1CCCN1 [PYPF] (H-PYPF-OH)	–	–	inhibition at 100 µM (ACE2 [1]; [10]): 93%; inhibition at 10 µM (ACE2 [1]; pH 6.5, read-out: ACE2 inhibition of terminally modified IHPF analogs, 10 μM (Table 3, in brackets)): 50%; inhibition at 100 µM (ACE2 [1]; [8]): 93%
CC(C)[C@H](NC(=O)[C@H](Cc1ccc(O)cc1)NC(=O)[C@@H]1CCCN1)C(=O)N[C@@H](Cc1ccccc1)C(=O)O [PYVF] (H-PYVF-OH)	51	94	inhibition at 100 µM (ACE2 [1]; [5]): 94%
CC(C)[C@H](N)C(=O)N[C@@H](Cc1c[nH]cn1)C(=O)N1CCC[C@H]1C(=O)N[C@@H](Cc1ccccc1)C(=O)O [VHPF] (H-VHPF-OH)	–	–	inhibition at 100 µM (ACE2 [1]; [9]): 78%; inhibition at 100 µM (ACE2 [1]; [5]): 78%
CC(C)[C@H](N)C(=O)N[C@@H](Cc1c[nH]cn1)C(=O)N[C@H](C(=O)N[C@@H](Cc1ccccc1)C(=O)O)C(C)C [VHVF] (H-VHVF-OH)	37	85	inhibition at 100 µM (ACE2 [1]; [5]): 85%
CC(C)[C@H](N)C(=O)N[C@@H](Cc1ccc(O)cc1)C(=O)N1CCC[C@H]1C(=O)N[C@@H](Cc1ccccc1)C(=O)O [VYPF] (H-VYPF-OH)	–	–	inhibition at 100 µM (ACE2 [1]; [10]): 90%
CC(C)[C@H](N)C(=O)N[C@@H](Cc1ccc(O)cc1)C(=O)N[C@H](C(=O)N[C@@H](Cc1ccccc1)C(=O)O)C(C)C [VYVF] (H-VYVF-OH)	–	–	inhibition at 100 µM (ACE2 [1]; [5]): 78%
N[C@@H](Cc1c[nH]c2ccccc12)C(=O)N[C@@H](Cc1c[nH]cn1)C(=O)N1CCC[C@H]1C(=O)N[C@@H](Cc1ccccc1)C(=O)O [WHPF] (H-WHPF-OH)	–	–	inhibition at 100 µM (ACE2 [1]; [9]): 0%
N[C@@H](Cc1ccc(O)cc1)C(=O)N[C@@H](Cc1c[nH]cn1)C(=O)N1CCC[C@H]1C(=O)N[C@@H](Cc1ccccc1)C(=O)O [YHPF] (H-YHPF-OH)	–	–	inhibition at 100 µM (ACE2 [1]; [9]): 34%
DRVYIYPF	–	–	inhibition at 0.1 µM (ACE2 [1]; [3]): 17%; inhibition at 1 µM (ACE2 [1]; [3]): 78 ± 2%; inhibition at 10 µM (ACE2 [1]; [4]): 96%; Cleavage (%) by ACE2, 1 μM (ACE2 [2]): 85%; Cleavage (%) by ACE2, 10 μM (ACE2 [2]): 18 ± 1.2%
